In patent US20170298051A1, “ACTIVATOR OF ADIPONECTIN RECEPTOR” (THE UNIVERSITY OF TOKYO, priority 2013, published 2017):

T1: AdipoR1 (Mus musculus, UniProt Q91VH1)
T1 construct: C2C12 cells (ATCC; CRL-1772, medium; host or cells: differentiated C2C12
T1 sequence (Q91VH1 1-375): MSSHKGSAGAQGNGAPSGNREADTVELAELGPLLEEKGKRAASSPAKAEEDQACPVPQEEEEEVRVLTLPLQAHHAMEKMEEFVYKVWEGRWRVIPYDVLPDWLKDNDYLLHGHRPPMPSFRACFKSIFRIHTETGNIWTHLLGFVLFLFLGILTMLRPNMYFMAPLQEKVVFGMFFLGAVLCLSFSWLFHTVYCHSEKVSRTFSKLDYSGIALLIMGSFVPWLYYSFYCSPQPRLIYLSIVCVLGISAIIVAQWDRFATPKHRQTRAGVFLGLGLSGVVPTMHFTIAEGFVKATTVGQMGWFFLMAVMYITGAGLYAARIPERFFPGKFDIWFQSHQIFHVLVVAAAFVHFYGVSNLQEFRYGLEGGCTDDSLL

B1: adiponectin: antidiabetic and antiatherogenic adipokine; mouse full-length adiponectin was generated as previously described (protein, UniProt Q60994 1-247, looked up)
chain: MLLLQALLFLLILPSHAEDDVTTTEELAPALVPPPKGTCAGWMAGIPGHPGHNGTPGRDGRDGTPGEKGEKGDAGLLGPKGETGDVGMTGAEGPRGFPGTPGRKGEPGEAAYVYRSAFSVGLETRVTVPNVPIRFTKIFYNQQNHYDGSTGKFYCNIPGLYYFSYHITVYMKDVKVSLFKKDKAVLFTYDQYQEKNVDQASGSVLLHLEVGDQVWLQVYGDGDHNGLYADNVNDSTFTGFLLYHDTN
modifications: full-length
notes: antidiabetic and antiatherogenic adipokine; mouse full-length adiponectin was generated as previously described

Experiments:
[1] = tested on: HF diet-induced obese mice; experiment: Oral glucose tolerance test and insulin tolerance in HF diet-induced obese mice; assay type: in vivo; details: mice, FIG. 7
Description: The original Adipor1^+/−/Adipor2^+/− mice (C57BL/6 and 129/Sv mixed background)^a were backcrossed with C57B1/6 mice more than seven times. All experiments in this study were conducted on male littermates.
(§1) Mice were 6-10 week of age at the time of the experiment. They were housed in cages and maintained on a 12 hr light-dark cycle.
(§2) Plasma glucose levels were determined by using a glucose B-test (Wako Pure Chemical Industries). Plasma insulin was measured with an insulin immunoassay (Shibayagi). Plasma NEFAs (Wako Pure Chemical Industries) were assayed by enzymatic methods.
(§3) The oral glucose tolerance test (OGTT) and insulin tolerance test (ITT) were conducted as previously described^a,b with slight modifications. The areas of the glucose and insulin curves were calculated by multiplying the cumulative mean height of the glucose values (1 mg/ml=1 cm) and insulin values (1 ng/ml=1 cm), respectively, by time (60 min=1 cm)^c,a. The insulin resistance index was calculated from the product of the areas of glucose and insulin×10^−2 in the glucose tolerance test. The results are expressed as the percentage of the value respect to control littermates.

AdipoR1 [2] = experiment: Measurement of AMPK phosphorylation ability (Assay 2), C2C12 cells with unrelated or AdipoR1 siRNA; assay type: cell-based, Mouse
Description: C2C12 cells (ATCC; CRL-1772, medium; DMEM, 10% Fetal Bovine Serum (FBS)) were cultured in a 12- or 24-well plate until they reached 100% confluency (37° C., 5% CO2). The medium was changed to DMEM, 2.5% Horse Serum (HS) and differentiation was started. The medium (DMEM, 2.5% HS) was replaced two days after the start of differentiation. The medium (DMEM, 2.5% HS) was further replaced two days after that.
On the next day following the replacement of the medium, first, 1 μL of Lipofectamine RNAiMAX and 50 μL of OPTI-MEM were mixed, and then 5 μM siRNA (sense siRNA sequence: […]tt (SEQ ID NO: 1)) and 50 μL of OPTI-MEM were mixed and the resultants were left to stand at room temperature for 5 minutes. And then, the 1 μL Lipofectamine RNAiMAX/50 μL OPTI-MEM and the 5 μM siRNA/50 μL OPTI-MEM were mixed, and the resultant was left to stand at room temperature for 10 minutes, which was added to the cells.
After 5 minutes, the medium (DMEM, 2.5 HS) was replaced, and after starvation on the next day, a test compound listed in Table 12 was added thereto. After 10 minutes, the medium was discarded and the plate was frozen with liquid nitrogen.
The respective amounts of pAMPK and AMPK were determined in the same way as in the above Assay 1.

AdipoR1 [3] = target: T1, AdipoR1; experiment: Measurement of AMPK phosphorylation ability (Assay 1), differentiated C2C12 cells, Western blotting; assay type: cell-based; details: 10 μM, 10 minutes
Description: The AMPK phosphorylation ability of the respective compounds according to the present invention was measured by using differentiated C2C12 cells or HEK 293T cells.
C2C12 cells (ATCC; CRL-1772, medium; DMEM, 10% FBS) were cultured in a 12- or 24-well plate until they reached 100% confluency (37° C., 5% CO2).
The medium was changed to 2.5% Horse Serum (HS) and differentiation was started. The medium (DMEM, 2.5% HS) was replaced every three days.
After starvation, a test compound listed in Table 12 (concentration: 10 μM) was added thereto, and after 10 minutes, the medium was discarded and the plate was frozen with liquid nitrogen.
To the 12- or 24-well cell plate which had been frozen was added 100 or 150 μL of Cell lysis buffer pH 7.4 (50 mM HEPES (pH 7.4), 2 mM sodium orthovanadate, 10 mM sodium pyrophosphate, 10 mM NaF, 2 mM EDTA, 2 mM EGTA, 0.1% (v/v) NP-40, 0.2 mM PMSF), and the cells were scraped off with a cell scraper, suspended and transferred into a micro centrifugal tube. And then, the cells were ultrasonically crushed (1 second×3 times) with a sonicator. Centrifugation was performed at 4° C. at 15,000 rpm for 15 minutes, and the supernatant was recovered into a new tube.
To 100 μL of the supernatant was added 25 μL of 5× sample buffer (280 mM Tris-HCl (pH 6.9), 40% glycerol, 10% (3-mercaptoethanol, 13% SDS, a small amount of bromophenol blue) and mixed together. The rest of the supernatant was used for protein quantification, and the protein concentrations were uniformed by adding 1× sample buffer depending on the concentration of each sample.
An electrophoresis chamber was filled with 1× SDS buffer (25 mM Tris-HCl, 250 mM glycine, 0.1% SDS), and the sample was applied to a well of polyacrylamide gel. Electrophoresis was performed until the bromophenol blue in the sample reached to the bottom of the gel.
A filter paper was soaked in 1× Transfer buffer sufficiently, above which the PVDF membrane and the gel after electrophoresis were stacked in this order, and thereabove a filter paper which had been soaked in 1× Transfer buffer sufficiently was further stacked, from which an air was removed and the resultant was set in semi-dry type transfer apparatus and transferred (7V, 35 minutes).
An unnecessary portion of the blotted membrane was cutoff, and the rest was immediately soaked in blocking buffer (5% skimmed milk in Rinse buffer), and shaken at room temperature at 40 rpm for 3 hours.
After blocking, the membrane was transferred into Rinse buffer, and washed at room temperature for 10 minutes while shaking. The membrane was soaked in a primary antibody solution (AMPK alpha Antibody (Cell signaling; #2532) 1/1,000 in Rinse buffer, Phospho-AMPK alpha (Thr172) (40H9) antibody (Cell signaling; #2535) 1/1,000 in Rinse buffer), and shaken at 4° C. at 40 rpm overnight.
The membrane was soaked in a secondary antibody solution (goat anti-rabbit IgG-HRP Antibody (Santa Cruz; sc-2030) 1/2,000 in Rinse buffer), and shaken at room temperature at 40 rpm for 1 hour.
After the membrane was washed for 45 minutes in the same way as after the primary antibody reaction, the membrane was soaked in a chemiluminescent reaction solution (ECL Western Blotting Detection Reagents, GE Healthcare) for about 1 minute. An excess of the reaction solution was removed, and then the membranes were arranged on a transparent film and sandwiched with it, with which an X-ray film was exposed in a darkroom (for about several seconds to 60 seconds) to develop the film.
The X-ray film was scanned to take the image, for which the band was measured by using the image analysis software “Image J” to determine the respective amounts of pAMPK and AMPK.

Lepr−/− (db/db) mice = experiment: Anti-diabetic effects in db/db mice; assay type: in vivo; details: intraperitoneal (IP) injection
Description: as §1
Male Lepr^−/− (aged 6-10 week) were purchased from Jackson Laboratory. When the mice in the same genotype received different treatments, they were randomly assigned to treatment groups.
as §2, §3

| Molecule | glucose intolerance and insulin resistance [1] | pAMPK/AMPK (ratio) siRNA, AdipoR1 siRNA (AdipoR1 [2]) | pAMPK/AMPK (ratio) siRNA, unrelated siRNA (AdipoR1 [2]) | pAMPK/AMPK (%) (AdipoR1 [3]) | plasma glucose level (Lepr−/− (db/db) mice) |
| --- | --- | --- | --- | --- | --- |
| COc1ccc(CN2CCN(C(=O)CCNC(=O)c3ccc(C(C)(C)C)cc3)CC2)cc1 [Compound 74, 4-tert-butyl-N-(3-{4-[(4-methoxyphenyl)methyl]piperazin-1-yl}-3-oxopropyl) benzamide] | could improve glucose intolerance as well as insulin resistance | 2.07 ratio | 3.70 ratio | 86.43% |  |
| Cc1ccccc1CN1CCC(Oc2ccc(C(=O)NCc3ccccn3)cc2)CC1 [No. 198637] |  | 2.51 ratio | 2.24 ratio | 87.39% |  |
| O=C(NC1CCN(Cc2ccccc2)CC1)c1ccc(Cl)c(Cl)c1 [No. 550212] |  | 2.14 ratio | 1.91 ratio | 80.04% |  |
| B1 |  |  |  |  | decreased plasma glucose level |
